# Assay results as given in article PMC7178524, “Comparative Pharmacokinetic Profiles of Puerarin in Rat Plasma by UHPLC-MS/MS after Oral Administration of Pueraria lobata Extract and Pure Puerarin” (Journal of Analytical Methods in Chemistry, 2020).
# Key:
# P-gp = conditions: after added verapamil (P-gp inhibitor); ref "Studies have found", no number given; cited from earlier work
# MRP2 = conditions: after added probenecid (MRP2 inhibitor); ref "Studies have found", no number given; cited from earlier work
# [1] = Pharmacokinetics of PUR in rat plasma after single oral administration, UHPLC-MS/MS; type: in vivo, male Wistar rats
# Procedure: Male Wistar rats (250−270 g) were purchased from the SPF (Beijing) Biotechnology Co., Ltd. (Beijing, China). The rats were then housed in an animal room to adapt to the environment for a week at standard temperature (23−28°C), humidity (50−65%), free diet, and tap water. Rats were fasted for 12 h before pharmacokinetic experiments and allowed free access to water and sugar during sample collection. Both PUR and PLE were dispersed in a 0.5% carboxymethyl cellulose solution and then sonicated to obtain a homogeneous suspension. A whole blood sample was collected from the infraorbital vein and immediately centrifuged at 3,500 rpm for 10 minutes at 4°C to obtain plasma. Plasma was stored at −20°C for later analysis. The experimental protocol was approved by the Animal Experiment Ethics Review Committee of Jiangsu Vocational College of Medicine.
# Chromatographic separation was performed using a Waters Acquity UHPLC system with an Acquity HSS T3 column (1.8 μm, 2.1 × 50 mm, Waters, Milford, MA). Mobile phase A consists of 0.1% aqueous formic acid solution, and mobile phase B consists of 0.1% formic acid acetonitrile. The gradient elution was as follows: 0 to 0.5 min, a linear gradient from 10 to 15% B; 0.5 to 2 min, 15 to 40% B; 2 to 4 min, 40 to 80% B; 4.1 to 5 min, 80 to 99% B; 5.1 to 7 min, a linear gradient back to 10% B. The flow rate was 0.3 mL/min. The column temperature was maintained at 40 °C, and the sample storage compartment was maintained at 4°C. Under these conditions, PUR and berberine hydrochloride were eluted at 2.0 and 3.2 minutes, respectively.
# Mass spectrometric detection was performed on a Waters TQD tandem mass spectrometer equipped with an electrospray ionization (ESI) source. The mass spectrometer was operated in multiple reaction monitoring (MRM) positive-ion mode and was quantified using the following transitions: m/z 417.1 > 297.0 for PUR and m/z 336.0 > 320.0 for berberine hydrochloride, and the mass fragment spectrum of PUR and berberine hydrochloride is shown in Figure 2. For all transitions, the cone voltage of 35 V and a collision energy of 30 eV for both PUR and berberine hydrochloride were used, as shown in Table 1. The capillary voltage was set at 2.8 kV, and the source temperature was maintained at 500°C with a gas flow rate of 850 L/h. Argon is used as the collision gas. The cone gas flow was set at 50 L/h. Data acquisition were performed with MassLynx^TM software version 4.1, and quantitation was performed using TargetLynx^TM (Waters, Milford, MA, USA).
# Rat plasma sample (100 μL) and IS solution (20 μL, 100 ng/mL) were added to a 1.5 mL Eppendorf tube and vortex-mixed for 30 s, followed by adding 500 μL of acetonitrile to precipitate protein. The mixture was then vortex-mixed for 2 min and centrifuged at 10,000 rpm for 10 min. The supernatant was evaporated to dryness under a stream of nitrogen gas. The obtained residue was reconstituted with methanol-water (80 : 20, v/v), then vortex-mixed for 3min and centrifuged at 13,000 rpm for 10 min. Finally, a 2 μL sample of the supernatant was injected into the UHPLC-MS/MS system for analysis.
# The validated method was applied to determine the plasma concentration of PUR in rats after single oral administration of PLE at a dose of 763 mg/kg (equivalent to 100.0 mg/kg of PUR, 1 mL/100g BW) or administration of PUR at a dose of 100 mg/kg (1 mL/100g BW). Twelve male Wistar rats were randomly divided into two groups of six rats each and fasted for 12 h before the experiment. The whole blood samples were collected in heparinized tubes through the suborbital vein of rat at 0.25, 0.5, 0.75, 1, 1.5, 2, 3, 4, 6, 8, 12, 24, 36, and 48 h after gavage administration of drugs. The blood samples were immediately centrifuged at 3,500 rpm for 10 min to obtain plasma. Plasma was stored at −20°C until analysis. […]
# [2] = Stability of PUR in rat plasma (QC samples, four storage conditions); type: in vitro ADME; conditions: for Stability (RE, %) Postextraction: extracted rat plasma sample, auto sampler 4°C for 24 h; for Stability (RE, %) Postextraction / Stability (RE, %) 23°C–28°C/24 h / Stability (RE, %) −20°C/30 day / Stability (RE, %) Freeze-thaw (3 cycles): n = 3; for Stability (RE, %) 23°C–28°C/24 h / Stability (RE, %) −20°C/30 day / Stability (RE, %) Freeze-thaw (3 cycles): rat plasma; for Stability (RE, %) Freeze-thaw (3 cycles): −20°C to 25°C
# Procedure: The stock solutions of PUR at a concentration of 200 μg/mL were prepared with methanol. A series of working solutions (4000, 1000, 400, 200, 100, and 40 ng/mL) were then prepared by diluting the stock solution with methanol. A 100 μg/mL IS stock solution was also prepared with methanol. A working solution of IS was prepared at a concentration of 100 ng/mL by diluting the stock solution with methanol. A standard calibration curve was prepared by adding 20 μL of the abovementioned PUR working solution and 20 μL of the IS working solution to 100 μL of blank plasma. The final plasma concentrations of PUR were in the concentration ranges of 800, 200, 80, 40, 20, and 8 ng/mL. QC samples of low, medium, and high concentrations (8, 80, and 720 ng/mL) of PUR were also prepared following the same procedure as described above. All solutions were kept at 4°C until use.
# The stability of the PUR in rat plasma was investigated by analyzing QC samples under four different storage conditions, including three freeze-thaw cycles, room temperature 23−28°C for 24 h, −20°C for 30 days, and postextraction stability after the extracted samples being stored in the auto sampler at the temperature 4°C for 24 h. If the accuracy deviation was within ± 15%, the PUR was considered stable.
# [3] = parameters: method as in PMID 29099639, PMID 29790819; conditions: coadministered with PUR, compared with the control group; cited from earlier work
# [4] = male, Wistar, PUR in rat plasma, oral PUR 100 mg/kg, n = 6, mean ± SD
smiles,measurement,setting,value
"O=c1c(-c2ccc(O)cc2)coc2c([C@@H]3O[C@H](CO)[C@@H](O)[C@H](O)[C@H]3O)c(O)ccc12 [PUR, daidzein-8-C-glucoside]",increase of intestinal absorption of PUR,P-gp,2.7 times
same,increase of intestinal absorption of PUR,MRP2,2.3 times
same,AUC(0-inf),[1]; [4],220 ± 64.4 ng·h/mL
same,AUC(0-t),[1]; [4],213 ± 61.9 ng·h/mL
same,Tmax,[1]; [4],1.46 ± 1.08 h
same,half-life,[1]; [4],96 ± 22.8 min
same,CL/F,"[1]; male, Wistar, PUR in rat plasma, oral PUR 100 mg/kg, n = 6, mean ± SD, read-out: CLz/F (converted)",8480 mL/min/kg
same,MRT last,"[1]; male, Wistar, PUR in rat plasma, oral PUR 100 mg/kg, n = 6, mean ± SD, read-out: MRT 0-t",2.22 ± 0.46 h
same,Vd/F,"[1]; male, Wistar, PUR in rat plasma, oral PUR 100 mg/kg, n = 6, mean ± SD, read-out: Vz/F",1200 ± 403 L/kg
same,Cmax,"[1]; male, Wistar, rat plasma, oral puerarin 100 mg/kg, abstract, read-out: maximum concentration (Cmax) of puerarin",102 ± 41.8 ng/mL
same,shape of plasma concentration-time curve of PUR,"[1]; oral pure PUR 100 mg/kg, rats",no double-peak phenomenon
same,"Stability (RE, %) Postextraction",[2]; 8.0 ng/mL,−7.7%
same,"Stability (RE, %) Postextraction",[2]; 80.0 ng/mL,−6.3%
same,"Stability (RE, %) Postextraction",[2]; 720.0 ng/mL,5.9%
same,"Stability (RE, %) 23°C–28°C/24 h",[2]; 8.0 ng/mL,11.5%
same,"Stability (RE, %) −20°C/30 day",[2]; 8.0 ng/mL,11.4%
same,"Stability (RE, %) Freeze-thaw (3 cycles)",[2]; 8.0 ng/mL,9.3%
same,"Stability (RE, %) 23°C–28°C/24 h",[2]; 80.0 ng/mL,6.5%
same,"Stability (RE, %) −20°C/30 day",[2]; 80.0 ng/mL,6.2%
same,"Stability (RE, %) Freeze-thaw (3 cycles)",[2]; 80.0 ng/mL,5.6%
same,"Stability (RE, %) 23°C–28°C/24 h",[2]; 720.0 ng/mL,8.7%
same,"Stability (RE, %) −20°C/30 day",[2]; 720.0 ng/mL,−4.7%
same,"Stability (RE, %) Freeze-thaw (3 cycles)",[2]; 720.0 ng/mL,−5.1%
same,stability in rat plasma under four tested conditions,"[2]; three freeze/thaw cycles, −20°C for 30 days, 23°C to 28°C for 24 h, postextraction 4°C for 24 h, stable if deviation within ± 15%",stable
CC(C)(O)[C@@H]1CC[C@](C)([C@H]2[C@@H](O)C[C@@]3(C)[C@@H]4C[C@H](O[C@@H]5O[C@H](CO)[C@@H](O)[C@H](O)[C@H]5O)[C@H]5C(C)(C)[C@@H](O[C@@H]6OC[C@@H](O)[C@H](O)[C@H]6O)CC[C@@]56C[C@@]46CC[C@]23C)O1 [astragaloside IV],"effect on Tmax, Cmax, and AUC0-t of PUR",[3],significantly reduce
CC1(C)[C@@H](O[C@H]2O[C@H](C(=O)O)[C@@H](O)[C@H](O)[C@H]2O[C@@H]2O[C@H](C(=O)O)[C@@H](O)[C@H](O)[C@H]2O)CC[C@]2(C)[C@H]3C(=O)C=C4[C@@H]5C[C@@](C)(C(=O)O)CC[C@]5(C)CC[C@@]4(C)[C@]3(C)CC[C@@H]12 [glycyrrhizin],"effect on Tmax, Cmax, and AUC0-t of PUR",[3],significantly reduce
